Reference: patent US9751926B2 (priority 2013, dated 2017)
Non-standard residues stand in square brackets, D forms with d. Residues, ends and D or L forms follow the SMILES beside them. Met(O2) = CS(=O)(=O)CC[C@H](N)C(=O)O; Aib = CC(C)(N)C(=O)O

Legend:
human GLP-1 receptor = target: T1, human GLP-1 receptor (Homo sapiens, UniProt P43220); test: cAMP response (HTRF) of HEK-293 cells stably expressing human GLP-1 receptor; format: cell-based; details: Table 6; formed cAMP; read-out: EC50 hGLP-1 R
T1 construct: expressed in transfected cells
Description: (§1) cAMP content of cells was determined using a kit from Cisbio Corp. (cat. no. 62AM4PEC) based on HTRF (Homogenous Time Resolved Fluorescence). For preparation, cells were split into T175 culture flasks and grown overnight to near confluency in medium (DMEM/10% FBS). Medium was then removed and cells washed with PBS lacking calcium and magnesium, followed by proteinase treatment with accutase (Sigma-Aldrich cat. no. A6964). Detached cells were washed and resuspended in assay buffer (1×HBSS; 20 mM HEPES, 0.1% BSA, 2 mM IBMX) and cellular density determined. They were then diluted to 400000 cells/ml and 25 μl-aliquots dispensed into the wells of 96-well plates. For measurement, 25 μl of test compound in assay buffer was added to the wells, followed by incubation for 30 minutes at room temperature.

human glucagon receptor = target: T2, human glucagon receptor (Homo sapiens, UniProt P47871); test: cAMP response (HTRF) of HEK-293 cells stably expressing human glucagon receptor; format: cell-based; details: Table 6; formed cAMP; read-out: EC50 hGLUC R
T2 construct: expressed in transfected cells
Description: as §1

physchem = format: physicochemical

T2 sequence (P47871 26-477): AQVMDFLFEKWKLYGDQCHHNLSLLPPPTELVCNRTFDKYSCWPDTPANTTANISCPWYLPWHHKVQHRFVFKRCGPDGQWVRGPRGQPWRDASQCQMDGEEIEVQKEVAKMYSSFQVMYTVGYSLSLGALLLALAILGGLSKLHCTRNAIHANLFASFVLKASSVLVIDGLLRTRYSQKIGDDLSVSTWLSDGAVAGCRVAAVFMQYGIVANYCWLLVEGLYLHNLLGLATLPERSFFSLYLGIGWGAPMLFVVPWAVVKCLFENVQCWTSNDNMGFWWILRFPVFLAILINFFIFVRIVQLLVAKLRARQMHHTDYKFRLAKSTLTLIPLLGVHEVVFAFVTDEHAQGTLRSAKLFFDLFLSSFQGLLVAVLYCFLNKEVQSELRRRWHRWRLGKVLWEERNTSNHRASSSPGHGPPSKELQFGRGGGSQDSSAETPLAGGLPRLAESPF
T1 sequence (P43220 24-463): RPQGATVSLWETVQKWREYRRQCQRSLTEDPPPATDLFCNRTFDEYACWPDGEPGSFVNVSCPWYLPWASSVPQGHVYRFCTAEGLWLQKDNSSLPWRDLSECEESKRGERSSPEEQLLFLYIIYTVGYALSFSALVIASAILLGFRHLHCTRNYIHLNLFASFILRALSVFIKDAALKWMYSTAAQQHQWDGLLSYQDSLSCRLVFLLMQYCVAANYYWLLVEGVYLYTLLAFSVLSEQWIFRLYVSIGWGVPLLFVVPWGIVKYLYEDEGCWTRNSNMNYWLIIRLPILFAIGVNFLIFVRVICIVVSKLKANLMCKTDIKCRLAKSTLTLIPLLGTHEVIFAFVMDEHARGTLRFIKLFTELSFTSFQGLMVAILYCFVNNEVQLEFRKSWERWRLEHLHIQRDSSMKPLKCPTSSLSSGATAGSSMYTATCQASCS

SMILES | EC50 (human GLP-1 receptor) [pM] | EC50 (human glucagon receptor) [nM] | solubility at 2 h (physchem; pH 4.5) [µg/mL] | solubility at 2 h (physchem; pH 7.4) [µg/mL]
CC[C@H](C)[C@H](NC(=O)[C@H](CO)NC(=O)[C@H](CC(C)C)NC(=O)[C@H](CC(=O)O)NC(=O)[C@H](CO)NC(=O)[C@@H](NC(=O)[C@H](Cc1ccccc1)NC(=O)[C@@H](NC(=O)CNC(=O)[C@H](CCC(=O)O)NC(=O)C(C)(C)NC(=O)[C@@H](N)Cc1ccc(O)cc1)[C@@H](C)O)[C@@H](C)O)C(=O)N[C@@H](CCC(N)=O)C(=O)N[C@@H](CCSC)C(=O)N[C@@H](CCC(=O)O)C(=O)N[C@@H](CCCCN)C(=O)N[C@@H](CCC(=O)O)C(=O)N[C@@H](C)C(=O)N[C@H](C(=O)N[C@@H](CCCNC(=N)N)C(=O)N[C@@H](CC(C)C)C(=O)N[C@@H](Cc1ccccc1)C(=O)N[C@H](C(=O)N[C@@H](CCC(=O)O)C(=O)N[C@@H](Cc1c[nH]c2ccccc12)C(=O)N[C@@H](CC(C)C)C(=O)N[C@@H](CCCCN)C(=O)N[C@@H](C)C(=O)NCC(=O)NCC(=O)N1CCC[C@H]1C(=O)N[C@@H](CO)C(=O)N[C@@H](CO)C(=O)NCC(=O)N[C@@H](C)C(=O)N1CCC[C@H]1C(=O)N1CCC[C@H]1C(=O)N1CCC[C@H]1C(=O)N[C@@H](CO)C(N)=O)[C@@H](C)CC)C(C)C [compound 9] (H-Y[Aib]EGTFTSDLSIQMEKEAVRLFIEWLKAGGPSSGAPPPS-NH2) | 1.1 | > 1000 |  | 
CC[C@H](C)[C@H](NC(=O)[C@H](CO)NC(=O)[C@H](CC(C)C)NC(=O)[C@H](CC(=O)O)NC(=O)[C@H](CO)NC(=O)[C@@H](NC(=O)[C@H](Cc1ccccc1)NC(=O)[C@@H](NC(=O)CNC(=O)[C@H](CCC(=O)O)NC(=O)C(C)(C)NC(=O)[C@@H](N)Cc1ccc(O)cc1)[C@@H](C)O)[C@@H](C)O)C(=O)N[C@@H](CCC(N)=O)C(=O)N[C@@H](CC(C)C)C(=O)N[C@@H](CCC(=O)O)C(=O)N[C@@H](CCCCN)C(=O)N[C@@H](CCC(=O)O)C(=O)N[C@@H](C)C(=O)N[C@H](C(=O)N[C@@H](CCCNC(=N)N)C(=O)N[C@@H](CC(C)C)C(=O)N[C@@H](Cc1ccccc1)C(=O)N[C@H](C(=O)N[C@@H](CCC(=O)O)C(=O)N[C@@H](Cc1c[nH]c2ccccc12)C(=O)N[C@@H](CC(C)C)C(=O)N[C@@H](CCCCN)C(=O)N[C@@H](C)C(=O)NCC(=O)NCC(=O)N1CCC[C@H]1C(=O)N[C@@H](CO)C(=O)N[C@@H](CO)C(=O)NCC(=O)N[C@@H](C)C(=O)N1CCC[C@H]1C(=O)N1CCC[C@H]1C(=O)N1CCC[C@H]1C(=O)N[C@@H](CO)C(N)=O)[C@@H](C)CC)C(C)C [compound 10] | 1.2 |  |  | 
CC[C@H](C)[C@H](NC(=O)[C@H](CO)NC(=O)[C@H](CC(C)C)NC(=O)[C@H](CC(=O)O)NC(=O)[C@H](CO)NC(=O)[C@@H](NC(=O)[C@H](Cc1ccccc1)NC(=O)[C@@H](NC(=O)CNC(=O)[C@H](CCC(=O)O)NC(=O)C(C)(C)NC(=O)[C@@H](N)Cc1ccc(O)cc1)[C@@H](C)O)[C@@H](C)O)C(=O)N[C@@H](CCC(N)=O)C(=O)N[C@@H](CC[S+](C)[O-])C(=O)N[C@@H](CCC(=O)O)C(=O)N[C@@H](CCCCN)C(=O)N[C@@H](CCC(=O)O)C(=O)N[C@@H](C)C(=O)N[C@H](C(=O)N[C@@H](CCCNC(=N)N)C(=O)N[C@@H](CC(C)C)C(=O)N[C@@H](Cc1ccccc1)C(=O)N[C@H](C(=O)N[C@@H](CCC(=O)O)C(=O)N[C@@H](Cc1c[nH]c2ccccc12)C(=O)N[C@@H](CC(C)C)C(=O)N[C@@H](CCCCN)C(=O)N[C@@H](C)C(=O)NCC(=O)NCC(=O)N1CCC[C@H]1C(=O)N[C@@H](CO)C(=O)N[C@@H](CO)C(=O)NCC(=O)N[C@@H](C)C(=O)N1CCC[C@H]1C(=O)N1CCC[C@H]1C(=O)N1CCC[C@H]1C(=O)N[C@@H](CO)C(N)=O)[C@@H](C)CC)C(C)C (stereo partly shown) [compound 13] |  | > 1000 |  | 
CC[C@H](C)[C@H](NC(=O)[C@H](CO)NC(=O)[C@H](CC(C)C)NC(=O)[C@H](CC(=O)O)NC(=O)[C@H](CO)NC(=O)[C@@H](NC(=O)[C@H](Cc1ccccc1)NC(=O)[C@@H](NC(=O)CNC(=O)[C@H](CCC(=O)O)NC(=O)C(C)(C)NC(=O)[C@@H](N)Cc1ccc(O)cc1)[C@@H](C)O)[C@@H](C)O)C(=O)N[C@@H](CCC(N)=O)C(=O)N[C@@H](CCS(C)(=O)=O)C(=O)N[C@@H](CCC(=O)O)C(=O)N[C@@H](CCCCN)C(=O)N[C@@H](CCC(=O)O)C(=O)N[C@@H](C)C(=O)N[C@H](C(=O)N[C@@H](CCCNC(=N)N)C(=O)N[C@@H](CC(C)C)C(=O)N[C@@H](Cc1ccccc1)C(=O)N[C@H](C(=O)N[C@@H](CCC(=O)O)C(=O)N[C@@H](Cc1c[nH]c2ccccc12)C(=O)N[C@@H](CC(C)C)C(=O)N[C@@H](CCCCN)C(=O)N[C@@H](C)C(=O)NCC(=O)NCC(=O)N1CCC[C@H]1C(=O)N[C@@H](CO)C(=O)N[C@@H](CO)C(=O)NCC(=O)N[C@@H](C)C(=O)N1CCC[C@H]1C(=O)N1CCC[C@H]1C(=O)N1CCC[C@H]1C(=O)N[C@@H](CO)C(N)=O)[C@@H](C)CC)C(C)C [compound 14] (H-Y[Aib]EGTFTSDLSIQ[Met(O2)]EKEAVRLFIEWLKAGGPSSGAPPPS-NH2) |  | > 1000 | > 1000 | > 1000
CC[C@H](C)[C@H](NC(=O)[C@H](CO)NC(=O)[C@H](CC(C)C)NC(=O)[C@H](CC(=O)O)NC(=O)[C@H](CO)NC(=O)[C@@H](NC(=O)[C@H](Cc1ccccc1)NC(=O)[C@@H](NC(=O)CNC(=O)[C@H](CCC(=O)O)NC(=O)C(C)(C)NC(=O)[C@@H](N)Cc1ccc(O)cc1)[C@@H](C)O)[C@@H](C)O)C(=O)N[C@@H](CCC(N)=O)C(=O)N[C@@H](CC(C)C)C(=O)N[C@@H](CCC(=O)O)C(=O)N[C@@H](CCC(=O)O)C(=O)N[C@@H](CCC(=O)O)C(=O)N[C@@H](C)C(=O)N[C@H](C(=O)N[C@@H](CCCNC(=N)N)C(=O)N[C@@H](CC(C)C)C(=O)N[C@@H](Cc1ccccc1)C(=O)N[C@H](C(=O)N[C@@H](CCC(=O)O)C(=O)N[C@@H](Cc1c[nH]c2ccccc12)C(=O)N[C@@H](CC(C)C)C(=O)N[C@@H](CCCCN)C(=O)N[C@@H](C)C(=O)NCC(=O)NCC(=O)N1CCC[C@H]1C(=O)N[C@@H](CO)C(=O)N[C@@H](CO)C(=O)NCC(=O)N[C@@H](C)C(=O)N1CCC[C@H]1C(=O)N1CCC[C@H]1C(=O)N1CCC[C@H]1C(=O)N[C@@H](CO)C(N)=O)[C@@H](C)CC)C(C)C [compound 15] (H-Y[Aib]EGTFTSDLSIQLEEEAVRLFIEWLKAGGPSSGAPPPS-NH2) |  | > 1000 |  | 
CC[C@H](C)[C@H](NC(=O)[C@H](CO)NC(=O)[C@H](CC(C)C)NC(=O)[C@H](CC(=O)O)NC(=O)[C@H](CO)NC(=O)[C@@H](NC(=O)[C@H](Cc1ccccc1)NC(=O)[C@@H](NC(=O)CNC(=O)[C@H](CCC(=O)O)NC(=O)C(C)(C)NC(=O)[C@@H](N)Cc1ccc(O)cc1)[C@@H](C)O)[C@@H](C)O)C(=O)N[C@@H](CCC(N)=O)C(=O)N[C@@H](CC(C)C)C(=O)N[C@@H](CCC(=O)O)C(=O)N[C@@H](CCC(=O)O)C(=O)N[C@@H](CCC(=O)O)C(=O)N[C@@H](C)C(=O)N[C@H](C(=O)NC(C)(C)C(=O)N[C@@H](CC(C)C)C(=O)N[C@@H](Cc1ccccc1)C(=O)N[C@H](C(=O)N[C@@H](CCC(=O)O)C(=O)N[C@@H](Cc1c[nH]c2ccccc12)C(=O)N[C@@H](CC(C)C)C(=O)N[C@@H](CCCCN)C(=O)N[C@@H](C)C(=O)NCC(=O)NCC(=O)N1CCC[C@H]1C(=O)N[C@@H](CO)C(=O)N[C@@H](CO)C(=O)NCC(=O)N[C@@H](C)C(=O)N1CCC[C@H]1C(=O)N1CCC[C@H]1C(=O)N1CCC[C@H]1C(=O)N[C@@H](CO)C(N)=O)[C@@H](C)CC)C(C)C [compound 16] | 1 | > 1000 |  | 
CC[C@H](C)[C@H](NC(=O)[C@H](CO)NC(=O)[C@H](CC(C)C)NC(=O)[C@H](CC(=O)O)NC(=O)[C@H](CO)NC(=O)[C@@H](NC(=O)[C@H](Cc1ccccc1)NC(=O)[C@@H](NC(=O)CNC(=O)[C@H](CCC(=O)O)NC(=O)C(C)(C)NC(=O)[C@@H](N)Cc1ccc(O)cc1)[C@@H](C)O)[C@@H](C)O)C(=O)N[C@@H](CCC(N)=O)C(=O)N[C@@H](CC(C)C)C(=O)N[C@@H](CCC(=O)O)C(=O)N[C@@H](CCC(=O)O)C(=O)N[C@@H](CCC(=O)O)C(=O)N[C@@H](C)C(=O)N[C@H](C(=O)N[C@@](C)(CCCCN)C(=O)N[C@@H](CC(C)C)C(=O)N[C@@H](Cc1ccccc1)C(=O)N[C@H](C(=O)N[C@@H](CCC(=O)O)C(=O)N[C@@H](Cc1c[nH]c2ccccc12)C(=O)N[C@@H](CC(C)C)C(=O)N[C@@H](CCCCN)C(=O)N[C@@H](C)C(=O)NCC(=O)NCC(=O)N1CCC[C@H]1C(=O)N[C@@H](CO)C(=O)N[C@@H](CO)C(=O)NCC(=O)N[C@@H](C)C(=O)N1CCC[C@H]1C(=O)N1CCC[C@H]1C(=O)N1CCC[C@H]1C(=O)N[C@@H](CO)C(N)=O)[C@@H](C)CC)C(C)C [compound 17] | 1.1 | > 1000 |  | 
CC[C@H](C)[C@H](NC(=O)[C@H](CO)NC(=O)[C@H](CC(C)C)NC(=O)[C@H](CC(=O)O)NC(=O)[C@H](CO)NC(=O)[C@@H](NC(=O)[C@H](Cc1ccccc1)NC(=O)[C@@H](NC(=O)CNC(=O)[C@H](CCC(=O)O)NC(=O)C(C)(C)NC(=O)[C@@H](N)Cc1ccc(O)cc1)[C@@H](C)O)[C@@H](C)O)C(=O)N[C@@H](CCC(N)=O)C(=O)N[C@@H](CC(C)C)C(=O)N[C@@H](CCC(=O)O)C(=O)N[C@@H](CCC(=O)O)C(=O)N[C@@H](CCC(=O)O)C(=O)N[C@@H](C)C(=O)N[C@H](C(=O)N[C@](C)(CCCCN)C(=O)N[C@@H](CC(C)C)C(=O)N[C@@H](Cc1ccccc1)C(=O)N[C@H](C(=O)N[C@@H](CCC(=O)O)C(=O)N[C@@H](Cc1c[nH]c2ccccc12)C(=O)N[C@@H](CC(C)C)C(=O)N[C@@H](CCCCN)C(=O)N[C@@H](C)C(=O)NCC(=O)NCC(=O)N1CCC[C@H]1C(=O)N[C@@H](CO)C(=O)N[C@@H](CO)C(=O)NCC(=O)N[C@@H](C)C(=O)N1CCC[C@H]1C(=O)N1CCC[C@H]1C(=O)N1CCC[C@H]1C(=O)N[C@@H](CO)C(N)=O)[C@@H](C)CC)C(C)C [compound 18] |  | > 1000 |  | 
